Experimental data: US8598200B2, “KAT II inhibitors” (Pfizer Inc., priority 2010, dated 2013)

Target: human KAT II (hKAT II) enzyme (Homo sapiens (Human), UniProt Q8N5Z0)
Test: KAT II Inhibition Spectra Assay
Assay type: biochemical
Details: decrease in OD370, L-kynurenine substrate, 37° C. for 15-20 h; values marked ^1 are the average of 2 IC50 determinations; read-out: KATII IC50 (nM; single determination unless otherwise indicated)
Procedure: Formation of kynurenic acid (KYNA) is indirectly assessed by a decrease in light absorbance at 370 nm (OD370) as the L-kynurenine (KYN) substrate is converted by the human KAT II (hKAT II) enzyme into KYNA. An inhibitor would therefore inhibit the decrease in OD370.
The protocol was performed by placing the following reagents into a Costar 384 well black plate (30 μL total assay volume/well): • 10 μL of 3× concentrated compound; • 10 μL of 3× concentrated substrate mix (BGG (Sigma G-5009); 3 mM L-Kynurenine in 150 mM Tris Acetate (Sigma K3750); 3 mM α-ketoglutaric acid in 150 mM Tris Acetate (Sigma K2010); and 210 μM pyridoxal 5-phosphate (PLP) in 150 mM Tris Acetate (Sigma 9255)); and • 10 μL of 3× concentrated enzyme (15 nM enzyme in 150 mM Tris Acetate with 0.3% bovine serum).
Plates were sealed and incubated at 37° C. for 15-20 h before reading OD370 on a SpectraMax Plus plate reader. IC50s were generated by comparing the efficacy of compounds across a concentration range to inhibit a reduction in the OD370 value relative to assay wells with DMSO added in place of concentrated compound. Biological data for the Examples may be found in Table 2.

human KAT II (hKAT II) enzyme, sequence (Q8N5Z0 30-425): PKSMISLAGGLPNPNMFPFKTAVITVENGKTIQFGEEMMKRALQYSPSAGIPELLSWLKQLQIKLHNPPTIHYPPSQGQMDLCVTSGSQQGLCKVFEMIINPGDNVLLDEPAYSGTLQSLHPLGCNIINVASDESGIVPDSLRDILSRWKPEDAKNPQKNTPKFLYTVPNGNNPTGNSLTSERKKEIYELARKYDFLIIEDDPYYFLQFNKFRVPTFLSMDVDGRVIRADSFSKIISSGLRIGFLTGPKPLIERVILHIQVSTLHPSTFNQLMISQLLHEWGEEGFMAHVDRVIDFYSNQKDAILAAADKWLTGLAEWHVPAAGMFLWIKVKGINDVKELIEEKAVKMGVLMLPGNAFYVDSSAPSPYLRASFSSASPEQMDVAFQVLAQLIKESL

| IC50 | SMILES |
| --- | --- |
| 28.3 nM | COc1ccc(Cn2cc3c(n2)N(O)C(=O)[C@@H](N)C3)cc1 [Example 15, (5S)-5-amino-7-hydroxy-2-(4-methoxybenzyl)-2,4,5,7-tetrahydro-6H-pyrazolo[3,4-b]pyridin-6-one] |
| 2010 nM | Cc1c2c(nn1-c1ccccc1)C[C@H](N)C(=O)N2O [Example 17, (6S)-6-amino-4-hydroxy-3-methyl-2-phenyl-2,4,6,7-tetrahydro-5H-pyrazolo[4,3-b]pyridin-5-one] |
| 24.3 nM | N[C@H]1Cc2cn(-c3ccccc3)nc2N(O)C1=O [Example 14, (5S)-5-amino-7-hydroxy-2-phenyl-2,4,5,7-tetrahydro-6H-pyrazolo[3,4-b]pyridin-6-one] |
| 42.2 nM | Cn1nc2c(c1Cc1cccc(C(F)(F)F)c1)C[C@H](N)C(=O)N2O [Example 25, (5S)-5-amino-7-hydroxy-2-methyl-3-[3-(trifluoromethyl)benzyl]-2,4,5,7-tetrahydro-6H-pyrazolo[3,4-b]pyridin-6-one] |
| 74.7 nM | N[C@H]1Cc2cn(-c3cccc(C(F)(F)F)c3)nc2N(O)C1=O [Example 7, (5S)-5-Amino-7-hydroxy-2-[3-(trifluoromethyl)phenyl]-2,4,5,7-tetrahydro-6H-pyrazolo[3,4-b]pyridin-6-one] |
| 42.7 nM | N[C@H]1Cc2c(c(C(F)(F)F)nn2Cc2ccccc2)N(O)C1=O [Example 5, (6S)-6-Amino-1-benzyl-4-hydroxy-3-(trifluoromethyl)-1,4,6,7-tetrahydro-5H-pyrazolo[4,3-b]pyridin-5-one] |
| 63.7 nM | Cn1nc(Cc2ccccc2)c2c1N(O)C(=O)[C@@H](N)C2 [Example 2, (5S)-5-Amino-3-benzyl-7-hydroxy-1-methyl-1,4,5,7-tetrahydro-6H-pyrazolo[3,4-b]pyridin-6-one] |
| 153 nM | CC(C)n1cc2c(n1)N(O)C(=O)[C@@H](N)C2 [Example 20, (5S)-5-amino-7-hydroxy-2-isopropyl-2,4,5,7-tetrahydro-6H-pyrazolo[3,4-b]pyridin-6-one] |
| 36 nM | N[C@H]1Cc2cn(Cc3cccc4ccccc34)nc2N(O)C1=O [Example 8, (5S)-5-amino-7-hydroxy-2-(1-naphthylmethyl)-2,4,5,7-tetrahydro-6H-pyrazolo[3,4-b]pyridin-6-one] |
| 31.6 nM | N[C@H]1Cc2cn(-c3ccc(C(F)(F)F)cc3)nc2N(O)C1=O [Example 29, (5S)-5-amino-7-hydroxy-2-[4-(trifluoromethyl)phenyl]-2,4,5,7-tetrahydro-6H-pyrazolo[3,4-b]pyridin-6-one] |
| 440 nM | COc1ccc(Cc2nn(C)c3c2C[C@H](N)C(=O)N3O)cc1 [Example 21] |
| 24.3 nM | CCn1nc2c(c1Cc1ccccc1)C[C@H](N)C(=O)N2O [Example 23, (5S)-5-amino-3-benzyl-2-ethyl-7-hydroxy-2.4,5,7-tetrahydro-6H-pyrazolo[3,4-b]pyridin-6-one] |
| 81.3 nM | N[C@H]1Cc2cn(C3CCC3)nc2N(O)C1=O [Example 19, (5S)-5-amino-2-cyclobutyl-7-hydroxy-2,4,5,7-tetrahydro-6H-pyrazolo[3,4-b]pyridin-6-one] |
| 81.6 nM | Cc1c2c(nn1Cc1ccccc1)N(O)C(=O)[C@@H](N)C2 [Example 12, (5S)-5-amino-2-benzyl-7-hydroxy-3-methyl-2,4,5,7-tetrahydro-6H-pyrazolo[3,4-b]pyridin-6-one] |
| 37 nM | Cn1nc2c(c1Cc1ccc(C(F)(F)F)cc1)C[C@H](N)C(=O)N2O [Example 27, (5S)-5-amino-7-hydroxy-2-methyl-3-[4-(trifluoromethyl)benzyl]-2,4,5,7-tetrahydro-6H-pyrazolo[3,4-6]pyridin-6-one] |
| 40.7 nM | Cn1nc2c(c1Cc1ccccc1C(F)(F)F)C[C@H](N)C(=O)N2O [Example 26, (5S)-5-amino-7-hydroxy-2-methyl-3-[2-(trifluoromethyl)benzyl]-2.4,5,7-tetrahydro-6H-pyrazolo[3,4-b] pyridin-6-one] |
| 117 nM | N[C@H]1Cc2cn(Cc3ccc4ccccc4c3)nc2N(O)C1=O [Example 9, (5S)-5-amino-7-hydroxy-2-(2-naphthylmethyl)-2,4,5,7-tetrahydro-6H-pyrazolo[3,4-b]pyridin-6-one] |
| 63 nM | CC(C)n1nc2c(c1Cc1ccccc1)C[C@H](N)C(=O)N2O [Example 24, (5S)-5-amino-3-benzyl-7-hydroxy-2-isopropyl-2,4,5,7-tetrahydro-6H-pyrazolo[3,4-b]pyridin-6-one] |
| 329 nM | Cn1ncc2c1N(O)C(=O)[C@@H](N)C2 [Example 18, (5S)-5-amino-7-hydroxy-1-methyl-1,4,5,7-tetrahydro-6H-pyrazolo[3,4-b]pyridin-6-one] |
| 11.5 nM | Cn1nc2c(c1Cc1ccccc1)C[C@H](N)C(=O)N2O [Example 3, (5S)-5-Amino-3-benzyl-7-hydroxy-2-methyl-2,4,5,7-tetrahydro-6H-pyrazolo[3,4-b]pyridin-6-one] |
| 182 nM | N[C@H]1Cc2nn(Cc3ccccc3)cc2N(O)C1=O [Example 13, (6S)-6-amino-2-benzyl-4-hydroxy-2,4,6,7-tetrahydro-5H-pyrazolo[4,3-b]pyridin-5-one] |
| 65.6 nM | COc1cccc(Cc2nn(C)c3c2C[C@H](N)C(=O)N3O)c1 [Example 22, (5S)-5-amino-7-hydroxy-3-(3-methoxybenzyl)-1-methyl-1,4,5,7-tetrahydro-6H-pyrazolo[3,4-b]pyridin-6-one] |
| 38.8 nM | N[C@H]1Cc2cn(-c3ccccc3C(F)(F)F)nc2N(O)C1=O [Example 28, (5S)-5-amino-7-hydroxy-2-[2-(trifluoromethyl)phenyl]-2,4,5,7-tetrahydro-6H-pyrazolo[3,4-b]pyridin-6-one] |
| 50.2 nM | COc1ccccc1Cn1cc2c(n1)N(O)C(=O)[C@@H](N)C2 [Example 10, (5S)-5-amino-7-hydroxy-2-(2-methoxybenzyl)-2,4,5,7-tetrahydro-6H-pyrazolo[3,4-b]pyridin-6-one] |
| 59.4 nM | N[C@H]1Cc2cn(Cc3ccccc3)nc2N(O)C1=O [Example 1, (5S)-5-Amino-2-benzyl-7-hydroxy-2,4,5,7-tetrahydro-6H-pyrazolo[3,4-b]pyridin-6-one] |
| 8.93 nM | COc1cccc(Cn2cc3c(n2)N(O)C(=O)[C@@H](N)C3)c1 [Example 11, (5S)-5-amino-7-hydroxy-2-(3-methoxybenzyl)-2,4,5,7-tetrahydro-6H-pyrazolo[3,4-b]pyridin-6-one] |
| 22.5 nM | N[C@H]1Cc2c(cnn2Cc2ccccc2)N(O)C1=O [Example 4, (6S)-6-Amino-1-benzyl-4-hydroxy-1,4,6,7-tetrahydro-5H-pyrazolo[4,3-b]pyridin-5-one] |
| 43.6 nM | N[C@H]1Cc2cn(Cc3ccc(OC(F)(F)F)cc3)nc2N(O)C1=O [Example 6, (5S)-5-Amino-7-hydroxy-2-[4-(trifluoromethoxy)benzyl]-2,4,5,7-tetrahydro-6H-pyrazolo[3,4-b]pyridin-6-one] |
